Structures can show the parent of a compound that is named as a salt.
What was measured:
[1] = test system: rat model of acute ischemia and reperfusion; test: acute ischemia and reperfusion model of the rat, size of the infarction; assay type: in vivo; conditions: 10 mg dimethyl fumarate in 0.02% DMSO iv at beginning of first occlusion; 45 min ischemia, 120 min reperfusion; vs control
Description: The effects of dimethyl fumarate were examined in the present experiment using the model of acute ischemia and reperfusion of the rat. For this purpose, healthy, male rats were divided into three groups with 17 animals each. In the tests, an ischemia was caused for 45 minutes through an occlusion of an artery with the heart being exposed and, subsequently, reperfusion was carried out for 120 minutes. Finally, a myocardial infarction was triggered by means of a reocclusion and the risk area was determined by means of dyeing with phthalocyanine blue. The administration of the test substance was carried out iv at the beginning of the first occlusion. The control group received 0.02% DMSO (0.5 ml/kg body weight), the DMF group received 10 mg dimethyl fumarate in 0.02% DMSO (0.5 ml/kg body weight). The animals were ischemically preconditioned in the second group (2 times 5 minutes each ischemia and reperfusion). The results are represented in FIG. 1.

[2] = test system: BSM (bronchial smooth muscle) cells; test: inhibition of the PDGF-induced incorporation of 3H-thymidine in BSM cells (Example B); assay type: cell-based; conditions: 10^-5 M dimethyl fumarate; 0, 1, 5, 10 and 20 ng/ml PDGF; 24 h 3H-thymidine
Description: BSM (bronchial smooth muscle) cells were cultivated in RPMI, 0.3% albumin and 0.1% DMSO at 37° C. in the presence of 0, 1, 5, 10 and 20 ng/ml on PDGF with and without 10^−5 M dimethyl fumarate.
After a predetermined period of time, 5 μCi on ^3H-thymidine was added to the culture medium and incubation was continued for further 24 hours. The incorporation was finally stopped by means of centrifugation, removal of the supernatant, washing and lysis of the cells. The incorporation on ^3H-thymidine was measured by determining the radioactivity in the lysates in a liquid scintillation device in comparison to the control. The results are shown in FIG. 2 as percentage values as compared with the control (100%).

[3] = test system: Bronchial smooth muscle cells; test: PDGF-stimulated proliferation of bronchial smooth muscle cells, 3H-thymidine (Example C); assay type: cell-based; conditions: 10 ng/ml PDGF; 10^-5 M DMF; 36 h treatment + 8 h 3H-thymidine
Description: Bronchial smooth muscle cells were grown in 96 well plates until they reached 60-70% confluency. The cells were then starved for 48 h in serum free, 0.3% albumine containing RPMI medium. […] As a control untreated cells (buffer only) were used. Cells were treated for 36 h, whereafter 4 μCi of ^3H-thymidine was added for further 8 hours. The cells were lysed, DNA-incorporated ^3H-thymidine bound to filter membranes, and the incorporated cpm measured in a liquid scintillation device.

[4] = test system: Dahl-rats; test: left ventricular enddiastolic diameter in Dahl rats on high salt diet, echocardiography; assay type: in vivo, rat; conditions: 2x5 and 2x15 mg DMF/kg/d, 8 weeks of high salt diet
Description: Dahl-rats, which are salt sensitive, were administered varying dosages of DMF on a daily basis and put on a high salt diet. After 8 weeks of treatment the left ventricular enddiastolic diameters were measured for test and control groups by echocardiographic analysis. Groups measured were control (0 mg DMF; n=9); group 1 (2×5 mg DMF/kg/d; n=9) and group 2 (2×15 mg DMF/kg/d; n=11). […] Specifically, in the DMF groups the inner diameter of the left ventricle remained in the same range as at baseline (see FIG. 4). […] Importantly, dilatation of the left ventricle marks the transition from compensated hypertrophy to decompensated heart failure. Consequently, DMF delays the transition to heart failure, and thus prevents myocardial infarctions.

COC(=O)/C=C/C(=O)OC [DMF, dimethyl fumarate]
size of the infarction [1]: limited the size of the infarction to a statistically significant degree | PDGF-induced 3H-thymidine incorporation [2]: this increase is significantly reduced | cell proliferation, percentage of control (100%) [3]: 116±4% | dilatation of the left ventricle (left ventricular enddiastolic diameter) [4]: prevented the dilatation of the left ventricle after 8 weeks of high salt diet in dose dependent manner

From patent publication US8980832B2, “Use of fumaric acid derivatives for treating cardiac insufficiency, and asthma” (Biogen Idec International GmbH, priority 2003, dated 2015)
